The text below walks through data of US10729701B2, “Compounds that are analogs of squalamine, used as antibacterial agents” (VIRBAC, priority 2015, dated 2020).

SMILES strings stand for the structures.

The test system of this assay is P. aeruginosa (PAO1). In words: MIC of conventional antibiotics alone. The assay is classed as cell-based. Conditions: Pseudomonas aeruginosa; antibiotic alone, Gram-negative strain of P. aeruginosa (PAO1); read-out: MIC.

With `C[C@H]1c2cccc(O)c2C(=O)C2=C(O)[C@]3(O)C(=O)C(C(N)=O)=C(O)[C@@H](N(C)C)[C@@H]3[C@@H](O)[C@@H]21` [doxycycline], the MIC came out at 40 mg/L.

Broadly, the MIC is the lowest concentration that inhibits growth of the organism.
